PubChem BioAssay AID256 (DTP/NCI, 2004)
Values joined by “and” are separate entries in the source; they are usually repeats but may differ in a detail not shown here. Equal values may be shown once. Toxic doses and inconclusive results are not listed.

Tested on: CD2F1 mice, L1210 leukemia ip, survival T/C
Assay: NCI In Vivo Anticancer Drug Screen. Data for tumor model L1210 Leukemia (intraperitoneal) in CD2F1 (CDF1) mice
Conditions: higher = longer survival
Outline: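 Compound-dosed mice with transplantable tumor versus matched vehicle controls; endpoint ratio T/C reported.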

[1] = endpoint: mean survival time, dose: 100.0 mg/kg/injection, schedule: Q01DX001 (ip), vehicle: saline
[2] = endpoint: mean survival time, dose: 200.0 mg/kg/injection, schedule: Q01DX001 (ip), vehicle: saline
[3] = endpoint: mean survival time, dose: 200.0 mg/kg/injection, schedule: Q01DX001 (ip), vehicle: saline with Tween-80
[4] = endpoint: mean survival time, dose: 400.0 mg/kg/injection, schedule: Q01DX001 (ip), vehicle: saline with Tween-80
[5] = endpoint: mean survival time, dose: 100.0 mg/kg/injection, schedule: Q04DX003 (ip), vehicle: saline with Tween-80
[6] = endpoint: mean survival time, dose: 200.0 mg/kg/injection, schedule: Q04DX003 (ip), vehicle: saline with Tween-80
[7] = endpoint: mean survival time, dose: 400.0 mg/kg/injection, schedule: Q04DX003 (ip), vehicle: saline with Tween-80
[8] = endpoint: mean survival time, dose: 100.0 mg/kg/injection, schedule: Q01DX009 (ip), vehicle: saline with Tween-80
[9] = endpoint: mean survival time, dose: 200.0 mg/kg/injection, schedule: Q01DX009 (ip), vehicle: saline with Tween-80
[10] = endpoint: mean survival time, dose: 400.0 mg/kg/injection, schedule: Q01DX009 (ip), vehicle: saline with Tween-80

SMILES: CCCN(CCC)S(=O)(=O)c1ccc(NC(=O)OC2CCCCC2)cc1
- T/C [1]: 93 % of control
- T/C [2]: 98 % of control
- T/C (endpoint: mean survival time, dose: 400.0 mg/kg/injection, schedule: Q01DX001 (ip), vehicle: saline): 97 % of control

SMILES: CCn1c(=O)c2nc(Br)n(C3OCC(OC(C)=O)C(OC(C)=O)C3OC(C)=O)c2n(CC)c1=O (configuration not stated)
- T/C (endpoint: mean survival time, dose: 12.5 mg/kg/injection, schedule: Q01DX005 (ip), vehicle: distilled water + Tween-80): 104 % of control
- T/C (endpoint: mean survival time, dose: 25.0 mg/kg/injection, schedule: Q01DX005 (ip), vehicle: distilled water + Tween-80): 104 % of control
- T/C (endpoint: mean survival time, dose: 50.0 mg/kg/injection, schedule: Q01DX005 (ip), vehicle: distilled water + Tween-80): 100 % of control
- T/C (endpoint: mean survival time, dose: 100.0 mg/kg/injection, schedule: Q01DX005 (ip), vehicle: distilled water + Tween-80): 93 % of control
- T/C (endpoint: mean survival time, dose: 200.0 mg/kg/injection, schedule: Q01DX005 (ip), vehicle: distilled water + Tween-80): 88 % of control

SMILES: CCOC(=O)c1ccc(N)cc1
- T/C (endpoint: mean survival time, dose: 12.5 mg/kg/injection, schedule: Q01DX001 (ip), vehicle: saline with Tween-80): 106 % of control
- T/C (endpoint: mean survival time, dose: 25.0 mg/kg/injection, schedule: Q01DX001 (ip), vehicle: saline with Tween-80): 100 % of control
- T/C (endpoint: mean survival time, dose: 50.0 mg/kg/injection, schedule: Q01DX001 (ip), vehicle: saline with Tween-80): 100 % of control
- T/C (endpoint: mean survival time, dose: 75.0 mg/kg/injection, schedule: Q01DX001 (ip), vehicle: other): 97 % of control
- T/C (endpoint: mean survival time, dose: 75.0 mg/kg/injection, schedule: Q04DX003 (ip), vehicle: saline with Tween-80): 93 % of control
- T/C (endpoint: mean survival time, dose: 150.0 mg/kg/injection, schedule: Q01DX001 (ip), vehicle: other): 103 % of control
- T/C (endpoint: mean survival time, dose: 150.0 mg/kg/injection, schedule: Q04DX003 (ip), vehicle: saline with Tween-80): 100 % of control
- T/C [3]: 226 % of control and 96 % of control
- T/C [4]: 100 % of control and 103 % of control

SMILES: C=C(Br)C(=O)O
- T/C [1]: 93 % of control
- T/C [2]: 98 % of control

SMILES: CCCCCCCCn1nnnc1N
- T/C (endpoint: mean survival time, dose: 12.5 mg/kg/injection, schedule: Q01DX001 (ip), vehicle: Klucel (hydroxypropylcellulose) (HPC)): 112 % of control
- T/C (endpoint: mean survival time, dose: 25.0 mg/kg/injection, schedule: Q01DX001 (ip), vehicle: Klucel (hydroxypropylcellulose) (HPC)): 97 % of control
- T/C (endpoint: mean survival time, dose: 50.0 mg/kg/injection, schedule: Q01DX001 (ip), vehicle: Klucel (hydroxypropylcellulose) (HPC)): 104 % of control

SMILES: c1cnc2c(OB(C3CCCCC3)C3CCCCC3)cccc2c1
- T/C (endpoint: mean survival time, dose: 100.0 mg/kg/injection, schedule: Q01DX001 (ip), vehicle: saline with Tween-80): 105 % of control
- T/C [3]: 91 % of control
- T/C [4]: 91 % of control

SMILES: CC1(C)OCC2OC=CC(=O)C2O1 (configuration not stated)
- T/C (endpoint: median survival time, dose: 25.0 mg/kg/injection, schedule: Q01DX009 (ip), vehicle: suspension in saline): 94 % of control
- T/C (endpoint: median survival time, dose: 50.0 mg/kg/injection, schedule: Q01DX009 (ip), vehicle: suspension in saline): 103 % of control
- T/C (endpoint: median survival time, dose: 100.0 mg/kg/injection, schedule: Q01DX009 (ip), vehicle: suspension in saline): 101 % of control
- T/C (endpoint: median survival time, dose: 200.0 mg/kg/injection, schedule: Q01DX009 (ip), vehicle: suspension in saline): 97 % of control
- T/C (endpoint: median survival time, dose: 400.0 mg/kg/injection, schedule: Q01DX009 (ip), vehicle: suspension in saline): 104 % of control

SMILES: CC(O)CN1CCN(CC(C)O)CC1.[I][Pt+2][I] (configuration not stated)
- T/C (endpoint: mean survival time, dose: 25.0 mg/kg/injection, schedule: Q04DX003 (ip), vehicle: saline with Tween-80): 102 % of control
- T/C (endpoint: mean survival time, dose: 50.0 mg/kg/injection, schedule: Q04DX003 (ip), vehicle: saline with Tween-80): 109 % of control
- T/C [5]: 95 % of control
- T/C [6]: 104 % of control
- T/C [7]: 100 % of control

SMILES: CCN(C(=O)NC)c1cc(C)ccc1OC
- T/C [8]: 87 % of control
- T/C [9]: 87 % of control
- T/C [10]: 98 % of control

SMILES: CCc1nc(N)nc(N)c1-c1ccc(Cl)cc1
- T/C (endpoint: mean survival time, dose: 2.0 mg/kg/injection, schedule: Q03HX008 (ip), vehicle: saline): 92 % of control
- T/C (endpoint: mean survival time, dose: 2.0 mg/kg/injection, schedule: Q03HX016 (ip), vehicle: saline): 89 % of control
- T/C (endpoint: mean survival time, dose: 2.0 mg/kg/injection, schedule: Q03HX024 (ip), vehicle: saline): 88 % of control
- T/C (endpoint: mean survival time, dose: 4.0 mg/kg/injection, schedule: Q03HX008 (ip), vehicle: saline): 90 % of control
- T/C (endpoint: mean survival time, dose: 4.0 mg/kg/injection, schedule: Q03HX016 (ip), vehicle: saline): 91 % of control
- T/C (endpoint: mean survival time, dose: 4.0 mg/kg/injection, schedule: Q03HX024 (ip), vehicle: saline): 86 % of control
- T/C (endpoint: mean survival time, dose: 8.0 mg/kg/injection, schedule: Q01DX009 (oral), vehicle: saline): 92 % of control
- T/C (endpoint: mean survival time, dose: 8.0 mg/kg/injection, schedule: Q03HX008 (ip), vehicle: saline): 92 % of control
- T/C (endpoint: mean survival time, dose: 8.0 mg/kg/injection, schedule: Q03HX016 (ip), vehicle: saline): 87 % of control
- T/C (endpoint: mean survival time, dose: 8.0 mg/kg/injection, schedule: Q03HX024 (ip), vehicle: saline): 88 % of control and 93 % of control
- T/C (endpoint: mean survival time, dose: 16.0 mg/kg/injection, schedule: Q01DX001 (ip), vehicle: saline): 107 % of control
- T/C (endpoint: mean survival time, dose: 16.0 mg/kg/injection, schedule: Q01DX001 (oral), vehicle: saline): 101 % of control
- T/C (endpoint: mean survival time, dose: 16.0 mg/kg/injection, schedule: Q01DX009 (ip), vehicle: saline): 101 % of control
- T/C (endpoint: mean survival time, dose: 16.0 mg/kg/injection, schedule: Q01DX009 (oral), vehicle: saline): 95 % of control
- T/C (endpoint: mean survival time, dose: 16.0 mg/kg/injection, schedule: Q03HX008 (ip), vehicle: saline): 89 % of control and 91 % of control
- T/C (endpoint: mean survival time, dose: 16.0 mg/kg/injection, schedule: Q03HX016 (ip), vehicle: saline): 91 % of control and 100 % of control
- T/C (endpoint: mean survival time, dose: 16.0 mg/kg/injection, schedule: Q03HX024 (ip), vehicle: saline): 90 % of control and 96 % of control
- T/C (endpoint: mean survival time, dose: 16.0 mg/kg/injection, schedule: Q04DX003 (ip), vehicle: saline): 88 % of control
- T/C (endpoint: mean survival time, dose: 16.0 mg/kg/injection, schedule: Q08DX002 (ip), vehicle: saline): 97 % of control
- T/C (endpoint: mean survival time, dose: 32.0 mg/kg/injection, schedule: Q01DX001 (ip), vehicle: saline): 98 % of control
- T/C (endpoint: mean survival time, dose: 32.0 mg/kg/injection, schedule: Q01DX001 (oral), vehicle: saline): 96 % of control
- T/C (endpoint: mean survival time, dose: 32.0 mg/kg/injection, schedule: Q01DX009 (ip), vehicle: saline): 106 % of control
- T/C (endpoint: mean survival time, dose: 32.0 mg/kg/injection, schedule: Q01DX009 (oral), vehicle: saline): 112 % of control
- T/C (endpoint: mean survival time, dose: 32.0 mg/kg/injection, schedule: Q04DX003 (ip), vehicle: saline): 87 % of control
- T/C (endpoint: mean survival time, dose: 32.0 mg/kg/injection, schedule: Q08DX002 (ip), vehicle: saline): 94 % of control
- T/C (endpoint: mean survival time, dose: 64.0 mg/kg/injection, schedule: Q01DX001 (ip), vehicle: saline): 100 % of control
- T/C (endpoint: mean survival time, dose: 64.0 mg/kg/injection, schedule: Q01DX001 (oral), vehicle: saline): 98 % of control
- T/C (endpoint: mean survival time, dose: 64.0 mg/kg/injection, schedule: Q01DX009 (ip), vehicle: saline): 108 % of control
- T/C (endpoint: mean survival time, dose: 64.0 mg/kg/injection, schedule: Q01DX009 (oral), vehicle: saline): 120 % of control and 96 % of control
- T/C (endpoint: mean survival time, dose: 64.0 mg/kg/injection, schedule: Q04DX003 (ip), vehicle: saline): 86 % of control and 95 % of control
- T/C (endpoint: mean survival time, dose: 64.0 mg/kg/injection, schedule: Q08DX002 (ip), vehicle: saline): 95 % of control
- T/C (endpoint: mean survival time, dose: 128.0 mg/kg/injection, schedule: Q01DX001 (ip), vehicle: saline): 100 % of control
- T/C (endpoint: mean survival time, dose: 128.0 mg/kg/injection, schedule: Q01DX001 (oral), vehicle: saline): 91 % of control
- T/C (endpoint: mean survival time, dose: 128.0 mg/kg/injection, schedule: Q04DX003 (ip), vehicle: saline): 96 % of control
- T/C (endpoint: mean survival time, dose: 128.0 mg/kg/injection, schedule: Q08DX002 (ip), vehicle: saline): 93 % of control and 101 % of control

SMILES: CC[C@H]1CN2CCc3cc(OC)c(OC)cc3[C@@H]2C[C@@H]1C[C@@H]1c2cc(OC)c(OC)cc2CCN1N=O
- T/C (endpoint: mean survival time, dose: 12.5 mg/kg/injection, schedule: Q01DX009 (ip), vehicle: saline): 104 % of control
- T/C (endpoint: mean survival time, dose: 25.0 mg/kg/injection, schedule: Q01DX009 (ip), vehicle: saline): 104 % of control
- T/C (endpoint: mean survival time, dose: 25.0 mg/kg/injection, schedule: Q04DX003 (ip), vehicle: saline): 100 % of control
- T/C (endpoint: mean survival time, dose: 50.0 mg/kg/injection, schedule: Q01DX009 (ip), vehicle: saline): 107 % of control
- T/C (endpoint: mean survival time, dose: 50.0 mg/kg/injection, schedule: Q04DX003 (ip), vehicle: saline): 95 % of control

SMILES: COC1C(O)C(O)C(O)C(O)C1O (configuration not stated)
- T/C (endpoint: mean survival time, dose: 100.0 mg/kg/injection, schedule: Q04DX003 (ip), vehicle: saline): 95 % of control
- T/C (endpoint: mean survival time, dose: 200.0 mg/kg/injection, schedule: Q04DX003 (ip), vehicle: saline): 92 % of control
- T/C (endpoint: mean survival time, dose: 400.0 mg/kg/injection, schedule: Q04DX003 (ip), vehicle: saline): 93 % of control

SMILES: O/N=C(/CN1CCOCC1)c1ccccc1
- T/C [8]: 97 % of control
- T/C [5]: 102 % of control
- T/C [9]: 94 % of control
- T/C [6]: 96 % of control
- T/C [10]: 96 % of control
- T/C [7]: 102 % of control
